Data published in patent US20240245682A1, “ALPHA-V-BETA-8 INTEGRIN INHIBITORS AND USES THEREOF” (Pliant Therapeutics, Inc., priority 2022, published 2024).
Where “and” joins values, the source holds several entries; their conditions need not be identical. Equal values may be shown once. Entries after “also recorded” stand apart in the source; their conditions may differ.

Tests used:
EMT6 tumors = assay: EMT6 (breast) syngeneic tumor model (Example B6); format: in vivo, Balb/c mice
Procedure: The therapeutic impact of Compound 39 of the examples in combination with anti PD-1 was studied for several […] mouse models, as shown in Table B-3. For each model, four dosing regimens were studied, using a group size of 10 mice per dosing regimen per model, and a total of 40 mice per model.
Mice were shaved and tumor cells as indicated in Table B-3 were subcutaneously implanted in a 100 μl cell suspension that was subcutaneously injected into the front/rear flank of each mouse (as indicated in Table B-3).
There was no dosing holiday. Dietary supplements were uniform for all animals in the same group.
Animals were monitored weekly for changes in tumor volume. Tumors were measured at least once a week using calipers. Tumor volume was calculated using the equation: (longest diameter*shortest diameter^2)/2.
The study was terminated four weeks after the first dose or when the tumor sizes reached greater than 3000 mm^3, whichever was first. Mice were euthanized and tumors were collected.
Tumor tissues (50 to 80 mg) were homogenized using metal beads in pre-chilled RINO screw cap tubes, using lysis matrix (MP Lysing Matrix S [⅛″], 2 mL Tube MP Biomedical Cat #116925100) on MP Fast Prep 24 instrument. Tumor RNA extraction from the tumor homogenate used the Ambion Purelink, RNA kit (Cat #12183018A) according to the manufacturers' protocol. A total of 100 ng RNA was used for the Nanostring analysis of the immuno-oncology and fibrosis panel, and 300 ng RNA was used for the analysis of the integrin panel. RNA was hybridized to gene expression Plexset according to the manufacturers' protocol. Hybridized reactions were read on nCounter MAX (Nanostring), and data were analyzed using nCounter software.
Table B-5 lists the catalog numbers of the antibodies used in the immunohistochemical (IHC) studies. Quantification of staining was done using the HALO software package (Indica Labs, Albaquerque, NM).

TKCC-08 tumors = assay: Subcutaneous FNX-resistant TKCC-08 PDX model of PDAC (Example B12); format: in vivo, NSG mice
Procedure: (§1) Table B-9 depicts the study design to determine the efficacy of selective αvβ1/αvβ8 SMI in the orthotopic ECM-high PDX models of PDAC. Table B-10 depicts the study design for the TKCC-10 PDX model.
Table B-12 depicts the study design for the TKCC-08 model.
FNX is a standard of care chemotherapy regimen for pancreatic ductal adenocarcinoma. However, the clinical response to FNX remains bleak. To assess if Compound 39 augmented the therapeutic benefit of FNX, Compound 39 was tested alone and in combination with FNX in the TKCC-08 model, which is made FNX-resistant by continuous exposure to the FNX.

TKCC-05 tumors = assay: Orthotopic TKCC-05 (PDX-05) PDX model of PDAC (Example B12); format: in vivo, NSG mice; settings: FIG. 26B
Procedure: as §1
Table B-11 depicts the study design for the TKCC-05 model.
TKCC-05 cells were inoculated in the pancreas of […] mice and were allowed to grow into tumors for 1 week. The mice were then treated according to schema outlined in […], and FIG. 26A, which depicts a schematic diagram of the treatment regimen in the TKCC-05 PDAC PDX model for this study. FIG. 26B depicts a graph associated with the quantification of tumor weights in mice treated with Compound 39, Reference compound B, and ADWA-11 Ab for the study associated with Example B12. FIG. 26C depicts a graph associated with the quantification of tumor weights in mice treated with G/A, Compound 39+G/A, Reference compound B+G/A, and ADWA-11+G/A for the study associated with Example B12. P values by one-way ANOVA.

[1] = system: primary human cancer associated fibroblasts (CAFs); assay: CAF adhesion to TGFβ latency-associated peptide (LAP), high-content imaging; format: cell-based
Procedure: Integrin αVβ1 is expressed in multiple solid tumors and drives the adhesion of cancer-associated fibroblasts (CAFs) to latent TGFβ. In human tumor tissues and in CAFs, αVβ1 protein expression was evaluated via immunohistochemistry (IHC) and custom […] assay, respectively. CAF adhesion to the TGFβ latency-associated peptide (LAP) was quantified in the presence or absence of Compound 39 in vitro by high-content microscopy imaging. The activity of Compound 39 in combination with anti-mPD-1 on fibrotic markers was evaluated in the EMT6 tumor model in vivo by gene expression analysis using the Nanostring® nCounter analysis system. Compound 39-treated human breast tumor tissue was analyzed for fibrotic marker α-smooth muscle actin (αSMA) using immunofluorescence.
αvβ1 protein expression was evaluated in human tumor tissues via immunohistochemistry. αvβ1 protein levels in primary human CAFs isolated from pancreatic carcinoma, lung adenocarcinoma, and lung squamous cell carcinoma were quantified via custom electrochemiluminescence assay. CAF adhesion to latency associated peptide (LAP), the integrin-binding region of latent TGF-β, was quantified in the presence or absence of Compound 39 of the examples and a small molecule selective inhibitor of αvβ1 by high-content imaging in vitro. […]

TKCC-10 PDX = assay: Orthotopic TKCC-10 (PDX-10) PDX model of PDAC (Example B12); format: in vivo, NSG mice
Procedure: as §1
TKCC-10 PDX bearing mice were treated with dose regimen according to the schematic in Table B-9 and FIG. 24A depicts a schematic diagram of the treatment regimen in the TKCC-10 mice. FIG. 24B depicts a graph showing final tumor weight for TKCC-10 PDX bearing mice after treatment with G/A, Compound 39, and Compound 39+G/A. FIG. 24C depicts a graph showing final tumor weight for TKCC-10 PDX bearing mice after treatment with G/A, ADWA-11, and ADWA-11+G/A.

[2] = Compound 39+α-PD1 vs vehicle+αPD1, FIG. 48, model not stated

## Cc1ncnc(Cl)c1C1(C(=O)N[C@@H](CCOCCCCc2ccc3c(n2)NCCC3)C(=O)O)CC1 [Compound 39, N-(1-(4-chloro-6-methylpyrimidin-5-yl)cyclopropane-1-carbonyl)-O-(4-(5,6,7,8-tetrahydro-1,8-naphthyridin-2-yl)butyl)-L-homoserine]
EMT6 tumors; [2]
  IFNγ gene signature: increases
  TGFβ gene signatures: Reduces
EMT6 tumors; Nanostring gene expression, Pico Sirius red, FIG. 107-112
  fibrotic markers and tissue fibrosis in the tumor microenvironment: reduces fibrotic markers; also recorded: significantly reduced fibrosis
EMT6 tumors; compared to vehicle, FIG. 33, model not given
  TGFβ activity: reduced TGFβ activity
EMT6 tumors; compared to vehicle, FIG. 34A
  expression of IFNγ-regulated gene Granzyme B: increased expression
EMT6 tumors; compared to vehicle, FIG. 34B
  expression of IFNγ-regulated gene IFNγ: increased expression
EMT6 tumors; compared to vehicle, FIG. 34C
  expression of IFNγ-regulated gene CXCL9: increased expression
EMT6 tumors; compared to vehicle, FIG. 34D
  expression of IFNγ-regulated gene PDL1: increased expression
TKCC-08 tumors; FNX-resistant subcutaneous tumors, Compound 39 300 mg/kg BID oral, FNX i.v. weekly, FIG. 27B
  mean tumor weight: 0.4 ± 0.15 g
TKCC-08 tumors; in words, FIG. 27A, 27B
  tumor growth and tumor weight: significantly reduced the tumor growth and the tumor weight
TKCC-05 tumors; 30 days treatment
  mean tumor weight: 0.23 ± 0.08 g and 0.228 ± 0.06 g
TKCC-05 tumors; in words, 26C
  tumor weight / tumor growth: significantly blocks tumor growth
[1]; LUAD, LUSC and pancreatic stellate CAFs, FIG. 103-105
  adhesion of CAFs to LAP: inhibits the adhesion of LUAD, LUSC, and PSC CAFs to TGFβ latency-associated peptide in a dose-dependent manner; also recorded: blocked the binding of CAFs to LAP; also recorded: significantly block in vitro binding of primary human CAFs to LAP
[1]; cell adhesion assays
  binding of latency associated peptide (LAP) to αvβ1: prevented
TKCC-10 PDX; 30 days, Compound 39 300 mg/kg BID oral, G 100 mg/kg / A 30 mg/kg i.p. once per week, FIG. 24B
  mean tumor weight: 0.798 ± 0.17 g
TKCC-10 PDX; FIG. 25D
  mean number of lung metastases: 4.1±3.2
TKCC-10 PDX; in words, FIG. 24C, 73
  tumor weight / tumor growth: significantly blocked tumor growth and improved the response to the standard of care (SOC) chemotherapy G/A
